Results from ChEMBL document CHEMBL3217423, “Binding of 9-O-(-amino) alkyl ether analogues of the plant alkaloid berberine to poly(A): insights into self-structure induction” (Medchemcomm, 2011).
The source made the active and inactive calls. No cut-off for these calls is given here.

Legend:
[1] = Binding affinity to poly(A) tail mRNA (unknown origin) assessed as induction of self-structure formation by circular dichroic spectroscopy
[2] = Binding affinity to poly(A) tail mRNA (unknown origin) assessed as melting temperature of poly(A) self-structure by UV absorption/CD melting analysis
[3] = Binding affinity to poly(A) tail mRNA (unknown origin) assessed as induction of self-structure formation by circular dichroism analysis
[4] = Binding affinity to poly(A) tail mRNA (unknown origin) assessed as association constant by isothermal titration calorimetry relative to berberine
[5] = Binding affinity to poly(A) tail mRNA (unknown origin) assessed as apparent binding constant by absorption spectroscopy relative to berberine

Row | SMILES | Activity [1] | Tm [2] [°C] | Activity [3] | Ratio [4] | Ratio [5]
1 | COc1ccc2cc3[n+](cc2c1OCCCCN)CCc1cc2c(cc1-3)OCO2 | Active | 58 | Active | – | –
2 | COc1ccc2cc3[n+](cc2c1OC)CCc1cc2c(cc1-3)OCO2 [BERBERINE] | Active | 58 | Active | – | –
3 | COc1ccc2cc3[n+](cc2c1OCCN)CCc1cc2c(cc1-3)OCO2 | – | 59 | – | 3 | –
4 | COc1ccc2cc3[n+](cc2c1OCCCCCCN)CCc1cc2c(cc1-3)OCO2 | Active | 59.5 | Active | 10 | 20
